Test results reported in publication PMC3958311 (EMBO Molecular Medicine, 2014).
Converted amounts (≈) assume the structure as drawn. “And” between values parts separate entries of the source, which are not always exact repeats. Identical values can stand only once.

What was measured:
[1] = test system: M. tuberculosis NTB1; type: cell-based, Mycobacterium tuberculosis
[2] = test system: M. tuberculosis H37Rv; conditions: stated in the Introduction; ref Makarov et al, 2009; cited from earlier work

Compound | MIC99 [1] [µg/mL] | fold increased resistance conferred by the Cys387Ser mutation in DprE1 [1] | MIC [2]
C[C@H]1COC2(CCN(c3nc(=O)c4cc(C(F)(F)F)cc([N+](=O)[O-])c4s3)CC2)O1 [BTZ043, 2-[(2S)-2-methyl-1,4-dioxa-8-azaspiro[4.5]dec-8-yl]-8-nitro-6-(trifluoromethyl)-4H-1,3-benzothia-zin-4-one] | 25 (≈ 58 µM) | > 10 000 fold | 1 ng/ml and 2.3 nM
O=c1nc(N2CCN(CC3CCCCC3)CC2)sc2c([N+](=O)[O-])cc(C(F)(F)F)cc12 [PBTZ169] | >100 | > 10 000 fold | 
CO[C@H]1/C=C/O[C@@]2(C)Oc3c(C)c(O)c4c(O)c(c(/C=N/N5CCN(C)CC5)c(O)c4c3C2=O)NC(=O)/C(C)=C\C=C\[C@H](C)[C@H](O)[C@@H](C)[C@@H](O)[C@@H](C)[C@H](OC(C)=O)[C@@H]1C [RIF, rifampicin] | 0.001 (≈ 0.00122 µM) |  | 
moxifloxicin [MXF] | 0.03 |  | 
